From patent US11161856B2 (H. Lundbeck A/S, priority 2017, dated 2021)

Experiments:
[1] = molecular target: T1, MGLL (Mus musculus, UniProt O35678); assay: In vitro competitive activity-based protein profiling, mouse brain proteome (MGLL); type: biochemical; settings: for % Inh MGLL Brain (Mouse, μM): concentration not given (μM)
T1 construct: Brain; from tissue; host or cells: mouse brain proteome
T1 sequence (O35678 1-303): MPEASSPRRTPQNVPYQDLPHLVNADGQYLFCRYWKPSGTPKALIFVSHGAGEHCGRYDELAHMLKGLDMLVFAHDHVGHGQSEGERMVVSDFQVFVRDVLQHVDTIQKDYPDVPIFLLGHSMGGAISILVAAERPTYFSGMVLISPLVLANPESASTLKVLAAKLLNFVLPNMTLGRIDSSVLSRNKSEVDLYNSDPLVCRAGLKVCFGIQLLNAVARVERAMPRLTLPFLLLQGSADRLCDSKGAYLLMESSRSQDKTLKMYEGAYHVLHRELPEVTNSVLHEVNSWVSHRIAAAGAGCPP

[2] = molecular target: T2, ABHD6 (Mus musculus, UniProt Q8R2Y0); assay: In vitro competitive activity-based protein profiling, mouse brain proteome (ABHD6); type: biochemical; settings: mouse brain proteome; for % Inh ABHD6 Brain (Mouse, μM): concentration not given (μM)
T2 construct: Brain; from tissue; host or cells: mouse brain proteome
T2 sequence (Q8R2Y0 1-336): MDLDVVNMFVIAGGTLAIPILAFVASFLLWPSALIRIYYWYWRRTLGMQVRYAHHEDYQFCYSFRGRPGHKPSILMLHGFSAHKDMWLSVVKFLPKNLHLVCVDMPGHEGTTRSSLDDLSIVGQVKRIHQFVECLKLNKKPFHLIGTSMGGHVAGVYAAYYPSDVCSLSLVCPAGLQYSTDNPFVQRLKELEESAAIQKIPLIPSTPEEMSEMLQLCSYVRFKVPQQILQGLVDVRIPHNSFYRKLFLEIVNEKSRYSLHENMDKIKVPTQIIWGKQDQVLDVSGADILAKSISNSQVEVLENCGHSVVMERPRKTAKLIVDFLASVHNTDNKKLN
Description: [The source words this procedure for another target and reports this target under the same test.] In Vitro Competitive Activity-Based Protein Profiling.
Proteomes (human prefrontal cortex or cell membrane fractions) (50 μL, 1.0 mg/mL total protein concentration) were preincubated with varying concentrations of inhibitors at 37° C. After 30 min, FP-Rh or HT-01 (1.0 μL, 50 μM in DMSO) was added and the mixture was incubated for another 30 min at room temperature. Reactions were quenched with SDS loading buffer (15 μL-4×) and run on SDS-PAGE.

Row | SMILES | % Inh MGLL Brain (Mouse, μM) [1] | % Inh ABHD6 Brain (Mouse, μM) [2] | inhibition at 10 µM ([1]; at 10 uM, read-out: % Inh MGLL Brain (Mouse)) [%] | inhibition at 10 µM ([2]; at 10 uM, read-out: % Inh ABHD6 Brain (Mouse)) [%]
1 | O=C(OC(C(F)(F)F)C(F)(F)F)N1CCC2(CC1)CN(Cc1ccc(N3CCCC3)cc1)C2 [Example 80, 1,1,1,3,3,3-Hexafluoropropan-2-yl 2-(4-(pyrrolidin-1-yl)benzyl)-2,7-diazaspiro[3.5]nonane-7-carboxylate] | ### (### is ≥75%) | # (# is ≤25%) | – | –
2 | CC(=O)N1CCCC12CCN(c1cc(Cl)ccc1CN1CCN(C(=O)OC(C(F)(F)F)C(F)(F)F)CC1)CC2 [Example 204, 1,1,1,3,3,3-Hexafluoropropan-2-yl 4-(2-(1-acetyl-1,8-diazaspiro[4.5]decan-8-yl)-4-chlorobenzyl)piperazine-l-carboxylate] | ### (### is ≥75%) | # (# is ≤25%) | – | –
3 | CC(=O)N1CCC2(CCN(c3ccccc3CN3CCN(C(=O)OC(C(F)(F)F)C(F)(F)F)CC3)C2)C1 (stereo not drawn) [Example 166, 1,1,1,3,3,3-Hexafluoropropan-2-yl 4-(2-(7-acetyl-2,7-diazaspiro[4.4]nonan-2-yl)benzyl)piperazine-1-carboxylate] | ### (### is ≥75%) | # (# is ≤25%) | – | –
4 | CC(=O)N1CC2(CCN(c3ccccc3CN3CCC34CCN(C(=O)OC(C(F)(F)F)C(F)(F)F)CC4)C2)C1 [Example 228, 1,1,1,3,3,3-Hexafluoropropan-2-yl 1-(2-(2-acetyl-2,6-diazaspiro[3,4]octan-6-yl)benzyl)-1,7-diazaspiro[3.5]nonane-7-carboxylate] | ### (### is ≥75%) | # (# is ≤25%) | – | –
5 | O=C(OC(C(F)(F)F)C(F)(F)F)N1CC2(CCN(Cc3ccc(N4CCCC4)cc3)CC2)C1 [Example 17, 1,1,1,3,3,3-hexafluoropropan-2-yl 7-(4-(pyrrolidin-1-yl)benzyl)-2,7-diazaspiro[3.5]nonane-2-carboxylate] | ### (### is ≥75%) | ### (### is ≥75%) | – | –
6 | CC(=O)N1CC2(CCN(c3cc(C(F)(F)F)ccc3CN3CCN(C(=O)OC(C(F)(F)F)C(F)(F)F)CC3)CC2)C1 [Example 216, 1,1,1,3,3,3-Hexafluoropropan-2-yl 4-(2-(2-acetyl-2,7-diazaspiro[3.5]nonan-7-yl)-4-(trifluoromethyl)benzyl) piperazine-1-carboxylate] | ### (### is ≥75%) | ## (## is between 25 and 75%) | – | –
7 | O=C(OC(C(F)(F)F)C(F)(F)F)N1CCC2(CC1)CN(Cc1ccccc1F)C2 [Example 98, 1,1,1,3,3,3-Hexafluoropropan-2-yl 2-(2-fluorobenzyl)-2,7-diazaspiro[3.5]nonane-7-carboxylate] | ### (### is ≥75%) | ### (### is ≥75%) | – | –
8 | O=C(OC(C(F)(F)F)C(F)(F)F)N1CCC2(CC1)CN(Cc1ccc(C(F)(F)F)cc1N1CCCC1)C2 [Example 151, 1,1,1,3,3,3-Hexafluoropropan-2-yl 2-(2-(pyrrolidin-1-yl)-4-(trifluoromethyl)benzyl)-2,7-diazaspiro[3.5]nonane-7-carboxylate] | ### (### is ≥75%) | ### (### is ≥75%) | – | –
9 | CC(=O)N1CCN(c2cccc(C(F)(F)F)c2CN2CC3(CCN(C(=O)OC(C(F)(F)F)C(F)(F)F)CC3)C2)CC1 [Example 59, 1,1,1,3,3,3-Hexafluoropropan-2-yl 2-(2-(4-acetylpiperazin-1-yl)-6-(trifluoromethyl)benzyl)-2,7-diazaspiro[3.5]nonane-7-carboxylate] | ### (### is ≥75%) | ### (### is ≥75%) | – | –
10 | Cc1ccc(CN2CC3(CCN(C(=O)OC(C(F)(F)F)C(F)(F)F)CC3)C2)cc1 [Example 84, 1,1,1,3,3,3-Hexafluoropropan-2-yl 2-(4-methylbenzyl)-2,7-diazaspiro[3.5]nonane-7-carboxylate] | ### (### is ≥75%) | ### (### is ≥75%) | – | –
11 | CS(=O)(=O)N1CC2CN(c3cc(Cl)ccc3CN3CCN(C(=O)OC(C(F)(F)F)C(F)(F)F)CC3)CC2C1 (stereo not drawn) [Example 203, 1,1,1,3,3,3-Hexafluoropropan-2-yl 4-(4-chloro-2-(5-(methylsulfonyl)hexahydropyrrolo[3,4-c]pyrrol-2(lH)-yl)benzyl)piperazine-l - carboxylate] | ### (### is ≥75%) | ### (### is ≥75%) | – | –
12 | O=C(OC(C(F)(F)F)C(F)(F)F)N1CCC2(CC1)CN(Cc1ccc(CN3CCOCC3)cc1)C2 [Example 73, 1,1,1,3,3,3-Hexafluoropropan-2-yl 2-(4-(morpholinomethyl)benzyl)-2,7-diazaspiro[3.5]nonane-7-carboxylate] | ### (### is ≥75%) | ### (### is ≥75%) | – | –
13 | CS(=O)(=O)N1CC2(CCN(c3cc(C(F)(F)F)ccc3CN3CCN(C(=O)OC(C(F)(F)F)C(F)(F)F)CC3)CC2)C1 [Example 211, 1,1,1,3,3,3-Hexafluoropropan-2-yl 4-(2-(2-(methylsulfonyl)-2,7-diazaspiro[3.5]nonan-7-yl)-4-(trifluoiomethyl)benzyl) piperazine-1-carboxylate] | ### (### is ≥75%) | ### (### is ≥75%) | – | –
14 | CS(=O)(=O)N1CCN(c2cccc(Cl)c2CN2CC3(CCN(C(=O)OC(C(F)(F)F)C(F)(F)F)CC3)C2)CC1 [Example 44, 1,1,1,3,3,3-Hexafluoropropan-2-yl 2-(2-chloro-6-(4-(methylsulfonyl)piperazin-1-yl)benzyl)-2,7-diazaspiro[3.5]nonane-7-carboxylate] | ### (### is ≥75%) | ### (### is ≥75%) | – | –
15 | O=C(O)C1CCN(c2cc(Cl)ccc2CN2CCC3(CC2)CCN(C(=O)OC(C(F)(F)F)C(F)(F)F)C3)CC1 [Example 194, l-(5-Chloro-2-((2-(((1.1,1,3,3,3-hexafluoropropan-2-yl)oxy)carbonyl)-2,8-diazaspiro[4.5]decan-8-yl)methyl)phenyI)piperidine-4-carboxylic acid] | ### (### is ≥75%) | # (# is ≤25%) | – | –
16 | O=C(OC(C(F)(F)F)C(F)(F)F)N1CC2(CCN(Cc3ccc(Cl)cc3N3CCOCC3)CC2)C1 [Example 37, 1,1,1,3,3,3-Hexafluoropropan-2-yl 7-(4-chloro-2-morpholinobenzyl)-2,7-diazaspiro[3.5]nonane-2-carboxylate] | ### (### is ≥75%) | ### (### is ≥75%) | – | –
17 | CCN1CCC2(CCN(c3cc(C(F)(F)F)ccc3CN3CCN(C(=O)OC(C(F)(F)F)C(F)(F)F)CC3)CC2)C1 [Example 183, 1,1,1,3,3,3-Hexafluoropropan-2-yl 4-(2-(2-ethyl-2,8-diazaspiro[4.5]decan-8-yl)-4-(trifluoromethyl)benzyl) piperazine-1-carboxylate] | ### (### is ≥75%) | # (# is ≤25%) | – | –
18 | O=C(OC(C(F)(F)F)C(F)(F)F)N1CCC2(CCN(Cc3ccc(Cl)c(N4CCCC4)c3)CC2)C1 [Example 172, 1,1,1,3,3,3-Hexafluoropropan-2-yl 8-(4-chloro-3-(pynolidin-1-yl)benzyl)-2,8-diazaspiro[4.5]decane-2-carboxylate] | – | – | > 75 | 25 to 75
19 | CS(=O)(=O)N1CCC2(CCN(c3cc(Cl)cc(CN4CCCC45CN(C(=O)OC(C(F)(F)F)C(F)(F)F)C5)c3)C2)CC1 [Example 237, 1,1,1,3,3,3-Hexafluoropropan-2-yl 5-(3-chloro-5-(8-(methylsulfonyl)-2,8-diazaspiro[4.5]decan-2-yl)benzyl)-2,5-diazaspiro[3.4]octane-2-carboxylate] | ### (### is ≥75%) | ## (## is between 25 and 75%) | – | –
20 | CC(=O)N1CC2(CCN(c3cc(C(F)(F)F)ccc3CN3CCN(C(=O)OC(C(F)(F)F)C(F)(F)F)CC3)C2)C1 [Example 180, 1,1,1,3,3,3-Hexafluoropropan-2-yl 4-(2-(2-acetyl-2,6-diazaspiro[3,4]octan-6-yl)-4-(trifluoromethyl)benzyl)pipera zine-1-carboxylate] | ### (### is ≥75%) | # (# is ≤25%) | – | –
21 | Cc1cc(N2CCOCC2)ccc1CN1CCC2(CC1)CN(C(=O)OC(C(F)(F)F)C(F)(F)F)C2 [Example 71, 1,1,1,3,3,3-Hexafluoropropan-2-yl 7-(2-methyl-4-morpholinobenzyl)-2,7-diazaspiro[3.5]nonane-2-carboxylate] | ### (### is ≥75%) | ### (### is ≥75%) | – | –
